One may read the Ki as the equilibrium dissociation constant of an inhibitor or competing ligand from its target. A high value points to a looser hold on the target. In general, IC50 refers to the concentration at which inhibition is half-maximal. Broadly, the Km is the concentration of substrate that gives half-maximal velocity.

Results on seven molecules are retold here after ChEMBL document CHEMBL1150452, “Kinetic characterization of a peptide inhibitor of trypsin isolated from a synthetic peptide combinatorial library” (Bioorg Med Chem Lett, 1995).

The target in series [1] is T1, Serine protease 1 (Bos taurus) (UniProt P00760).
T1 sequence (whole entry): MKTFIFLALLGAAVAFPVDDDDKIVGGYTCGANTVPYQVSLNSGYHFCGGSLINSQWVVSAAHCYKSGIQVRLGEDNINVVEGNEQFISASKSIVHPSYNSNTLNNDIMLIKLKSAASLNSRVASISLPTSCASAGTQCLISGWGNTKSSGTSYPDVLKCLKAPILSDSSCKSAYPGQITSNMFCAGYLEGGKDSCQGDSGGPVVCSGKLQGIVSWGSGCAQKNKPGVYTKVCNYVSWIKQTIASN
Description: (§1) Trypsin inhibitory potency was evaluated from the catalytic constant Kcat.

In series [2] the target is T2, Serine protease 1 (Bos taurus, UniProt P00760).
T2 sequence (P00760 whole entry): T1 sequence (whole entry)
Kind of series: Inhibitory activity against trypsin mediated Tyr-Gly-Aer-p- nitroaniline.

The target in series [3] is T2, Serine protease 1. Kind of series: Inhibitory activity against trypsin.
Series [4] concerns the target T1, Serine protease 1 (Bos taurus). The source holds these as a separate data set.
Description: as §1
Substrate in series [5]: CC[C@H](C)[C@H](NC(=O)[C@H](CCCCN)NC(=O)CNC(=O)[C@H](Cc1ccc(O)cc1)NC(=O)[C@@H](N)Cc1ccc(O)cc1)C(=O)N[C@@H](Cc1ccc(O)cc1)C(=O)N[C@@H](CCCN=C(N)N)C(=O)N1CCC[C@H]1C(=O)N[C@@H](CC(=O)O)C(=O)N[C@@H](CCCCN)C(=O)N[C@@H](CCSC)C(=O)O
Description: Trypsin inhibitory potency was evaluated from the Michaelis-Menten constant KM.
The note with it: Bos taurus.

H-YYGAKAYRPDKM-OH had a k cat in series [1] of 87 s⁻¹.

Regarding H-YYGAKIYRPDKM-OH, the Ki at Serine protease 1 [2] was found to be 9.4 µM. For the same molecule, on Serine protease 1 [3], the IC50 was 10 µM.

In the case of `CC[C@H](C)[C@H](NC(=O)[C@H](CCCN=C(N)N)NC(=O)[C@H](C)NC(=O)CNC(=O)[C@H](Cc1ccc(O)cc1)NC(=O)[C@@H](N)Cc1ccc(O)cc1)C(=O)N[C@@H](Cc1ccc(O)cc1)C(=O)N[C@@H](CCCN=C(N)N)C(=O)N1CCC[C@@H]1C(=O)N[C@@H](CC(=O)O)C(=O)N[C@@H](CCCCN)C(=O)N[C@@H](CCSC)C(=O)O`, in series [1], the k cat was determined as 30 s⁻¹.

As for H-YYGKIYRPDKM-OH, the k cat in series [4] stood at 0.73 s⁻¹.

As to `CC[C@H](C)[C@H](NC(=O)[C@H](CCCCN)NC(=O)[C@H](C)NC(=O)CNC(=O)[C@H](Cc1ccc(O)cc1)NC(=O)[C@@H](N)Cc1ccc(O)cc1)C(=O)N[C@@H](C)C(=O)N[C@@H](CCCN=C(N)N)C(=O)N1CCC[C@@H]1C(=O)N[C@@H](CC(=O)O)C(=O)N[C@@H](CCCCN)C(=O)N[C@@H](CCSC)C(=O)O`, in series [1], the k cat is 1.3 s⁻¹.

`CC[C@H](C)[C@H](NC(=O)[C@H](CCCCN)NC(=O)[C@H](C)NC(=O)CNC(=O)[C@H](Cc1ccc(O)cc1)NC(=O)[C@@H](N)Cc1ccc(O)cc1)C(=O)N[C@@H](Cc1ccc(O)cc1)C(=O)N[C@@H](C)C(=O)N1CCC[C@@H]1C(=O)N[C@@H](CC(=O)O)C(=O)N[C@@H](CCCCN)C(=O)N[C@@H](CCSC)C(=O)O` gave a k cat in series [1] of 0.6 s⁻¹.

B1: Serine protease 1 (Bos taurus), P00760 (protein)
chain: T1 sequence (whole entry)
With B1, the Km in series [5] was 24 mM.
